Results on 16 compounds are retold here after US12552938B2, “Deuterated fluorophores” (HOWARD HUGHES MEDICAL INSTITUTE, priority 2018, dated 2026).

Entries after “also recorded” stand apart in the source; their conditions may differ. Counter-ions that a name gives are not always drawn.

The nature of series [1]: spectral properties of free dyes (absorbance, fluorescence emission, ε, Φ, intrinsic brightness). Type of series: physicochemical. As to conditions: 10 mM HEPES pH 7.3; for extinction coefficient (ε) compared to nondeuterated parent / fluorescence quantum yield (Φ) compared to nondeuterated parent / intrinsic brightness (ε×Φ): free dye; for intrinsic brightness (ε×Φ): in vitro.

Series [2] in a line: photobleaching of free dyes in vitro. Type of series: physicochemical. Conditions: for chromostability during bleaching: compared to nondeuterated compounds 15 and 17; for photobleaching / in vitro photostability compared to nondeuterated parent: free dye, 10 mM HEPES pH 7.3.
Series [3] has as its system histone H2B-HaloTag fusion. The series is described as follows: labeling of cells expressing histone H2B-HaloTag fusion and imaging. Type of series: cell-based, mammalian cell. As to conditions: 10 pM, 30 min, washed 30 minutes.
Series [4] deals with Sox2-HaloTag fusions. The series is described as follows: live-cell single-particle tracking of HaloTag ligands. Format: cell-based. Conditions: HaloTag conjugates; for brightness in cells (photons/s): equivalent imaging conditions.
For series [5], the system named is HaloTag protein. The series is described as follows: relative singlet oxygen quantum yield of HaloTag-bound ligands. Type of series: physicochemical.
In series [6] the test system is histone H2B-HaloTag. The series is described as follows: fluorescence lifetime in live cells measured using FLIM. Format: cell-based. As to conditions: histone H2B-HaloTag-bound.
The subject of series [7] is HaloTag protein. Put plainly: fluorescence quantum yield of HaloTag-bound ligands in vitro. Type of series: physicochemical. As to conditions: attached to HaloTag protein. As to the method:
These dyes were then tested as protein conjugates in vitro and in living cells. […] Both J ligands could label HaloTag-histone H2B fusions in living cells (FIG. 24, FIG. 25).

[8] abbreviates: deuterated vs nondeuterated TMR.

As for `[2H]C1([2H])N(c2ccc3c(C)cc(=O)oc3c2)C([2H])([2H])C1([2H])[2H]` [Compound 40, 7-(Azetidin-1-yl-d6)-4-methyl-2H-chromen-2-one], in series [1], the “extinction coefficient (ε) compared to nondeuterated parent” value was “similar” and the “fluorescence quantum yield (Φ) compared to nondeuterated parent” value is reported as “small decrease”.

With `O=C1OC2(c3ccc(N4CCC4)cc3Oc3cc(N4CCC4)ccc32)c2ccccc21` [Compound 15, reference compound], the “blue-shift of fluorescence emission during photobleaching due to dealkylation” value in series [2] (spectra taken periodically during photobleaching) is 9 nm.

As to `[2H]C1([2H])N(c2ccc3c(-c4ccccc4C(=O)[O-])c4ccc(=[N+]5C([2H])([2H])C([2H])([2H])C([2H])([2H])C([2H])([2H])C5([2H])[2H])cc-4oc3c2)C([2H])([2H])C([2H])([2H])C([2H])([2H])C1([2H])[2H]` [Compound 20, 2-(3,6-Bis(piperidin-1-yl-d10)xanthylium-9-yl)benzoate], in series [2], the chromostability during bleaching entry was “higher”. In addition, in series [1], the “absorption and emission maxima / spectral shape compared to nondeuterated parent” value was “no change in spectral shape”; the “extinction coefficient (ε) compared to nondeuterated parent” value was “increases”; the “fluorescence quantum yield (Φ) compared to nondeuterated parent” value is given as “increases”.

With `[2H]C1([2H])N(c2ccc3c(c2)C(C)(C)C2=CC(=[N+]4C([2H])([2H])C([2H])([2H])C4([2H])[2H])C=CC2=C3c2ccccc2C(=O)[O-])C([2H])([2H])C1([2H])[2H]` [Compound 27, 2-(3,6-Bis(azetidin-1-yl-d6)-10,10-dimethylanthracen-9-ylium-9(10H)-yl)benzoate], in series [1], the “extinction coefficient (ε) compared to nondeuterated parent” value was “substantial increases” and the “fluorescence quantum yield (Φ) compared to nondeuterated parent” value is given as “substantial increases”.

With `[2H]C1([2H])N(c2ccc3c(c2)[Si](C)(C)C2=CC(=[N+]4C([2H])([2H])C([2H])([2H])C([2H])([2H])C4([2H])[2H])C=CC2=C3c2cc(C(=O)NCCOCCOCCCCCCCl)ccc2C(=O)[O-])C([2H])([2H])C([2H])([2H])C1([2H])[2H]` [Compound 38, 4-((2-(2-((6-Chlorohexyl)oxy)ethoxy)ethyl)carbamoyl)-2-(5,5-dimethyl-3,7-bis(pyrrolidin-1-yl-d8)dibenzo[b,e]silin-10-ylium-10(5H)-yl)benzoate], in series [3], the “labeling of HaloTag-histone H2B fusions in living cells” value (from here on “labeling”) is “improved cellular labeling”. In series [4], the “photostability in cells (average track length of individual molecules)” value (shortened to “photostability in cells”) is on record as “more photostable; also recorded: longest average single-molecule track length” and the “brightness in cells (photons/s)” value is “highest photons/s”.

On to `[2H]C1([2H])OC([2H])([2H])C([2H])([2H])N(c2ccc3c(-c4ccccc4C(=O)[O-])c4ccc(=[N+]5C([2H])([2H])C([2H])([2H])OC([2H])([2H])C5([2H])[2H])cc-4oc3c2)C1([2H])[2H]` [Compound 22, 2-(3,6-Bis(morpholino-d8)xanthylium-9-yl)benzoate], for which, in series [1], the “absorption and emission maxima / spectral shape compared to nondeuterated parent” value is reported as “no change in spectral shape”; the “extinction coefficient (ε) compared to nondeuterated parent” value is given as “increases”; the “fluorescence quantum yield (Φ) compared to nondeuterated parent” value is listed as “increases”.

`[2H]C1([2H])N(c2ccc3c(C)cc(=O)oc3c2)C([2H])([2H])C([2H])([2H])C1([2H])[2H]` [Compound 42, 4-Methyl-7-(pyrrolidin-1-yl-d8)-2H-chromen-2-one]: in series [1], the “extinction coefficient (ε) compared to nondeuterated parent” value is “equivalent” and the “fluorescence quantum yield (Φ) compared to nondeuterated parent” value was “significantly higher”.

Consider `[2H]C1([2H])N(c2ccc3nc4ccc(=[N+]5C([2H])([2H])C([2H])([2H])C([2H])([2H])C5([2H])[2H])cc-4oc3c2)C([2H])([2H])C([2H])([2H])C1([2H])[2H]` [Compound 44, 3,7-Bis(pyrrolidin-1-yl-d8)phenoxazin-5-ium trifluoroacetate], for which the “fluorescence quantum yield (Φ) compared to nondeuterated parent” value in series [1] is reported as “substantial increase”.

Take `[2H]C1([2H])N(c2ccc3c(-c4ccccc4C(=O)[O-])c4ccc(=[N+]5C([2H])([2H])C([2H])([2H])C([2H])([2H])C5([2H])[2H])cc-4oc3c2)C([2H])([2H])C([2H])([2H])C1([2H])[2H]` [Compound 18, 2-(3,6-Bis(pyrrolidin-1-yl-d8)xanthylium-9-yl)benzoate]: in series [2], the chromostability during bleaching entry is “higher” and the “photobleaching / in vitro photostability compared to nondeuterated parent” value is given as “improved in vitro photostability”. Also, in series [1], the “absorption and emission maxima / spectral shape compared to nondeuterated parent” value is listed as “no change in spectral shape”; the “intrinsic brightness (ε×Φ)” value was “equivalent brightness”; the “extinction coefficient (ε) compared to nondeuterated parent” value is given as “increases”; the “fluorescence quantum yield (Φ) compared to nondeuterated parent” value was “increases”.

Take `[2H]C1([2H])N(c2ccc3c(-c4cc(C(=O)NCCOCCOCCCCCCCl)ccc4C(=O)[O-])c4ccc(=[N+]5C([2H])([2H])C([2H])([2H])C([2H])([2H])C5([2H])[2H])cc-4oc3c2)C([2H])([2H])C([2H])([2H])C1([2H])[2H]` [Compound 25, 2-(3,6-Bis(pyrrolidin-1-yl-d8)xanthylium-9-yl)-4-((2-(2-((6-chlorohexyl)oxy)ethoxy)ethyl)carbamoyl)benzoate]: in series [3], the “labeling” value was “excellent live-cell label”. For the same compound, in series [4], the “photostability in cells” value is listed as “significantly longer tracks” and the “brightness in cells (photons/s)” value is listed as “higher brightness”.

For `[2H]C1([2H])N(c2ccc3c(c2)C(C)(C)C2=CC(=[N+]4C([2H])([2H])C([2H])([2H])C([2H])([2H])C4([2H])[2H])C=CC2=C3c2ccccc2C(=O)[O-])C([2H])([2H])C([2H])([2H])C1([2H])[2H]` [Compound 29, 2-(10,10-Dimethyl-3,6-bis(pyrrolidin-1-yl-d8)anthracen-9-ylium-9(10H)-yl)benzoate], in series [1], the “extinction coefficient (ε) compared to nondeuterated parent” value is “substantial increases” and the “fluorescence quantum yield (Φ) compared to nondeuterated parent” value is “substantial increases”.

Turning to `[2H]C1([2H])N(c2ccc3c(c2)[Si](C)(C)C2=CC(=[N+]4C([2H])([2H])C([2H])([2H])C4([2H])[2H])C=CC2=C3c2cc(C(=O)NCCOCCOCCCCCCCl)ccc2C(=O)[O-])C([2H])([2H])C1([2H])[2H]` [Compound 37, 2-(3,7-Bis(azetidin-1-yl-d6)-5,5-dimethyldibenzo[b,e]silin-10-ylium-10(51)-yl)-4-((2-(2-((6-chlorohexyl)oxy)ethoxy)ethyl)carbamoyl)benzoate], in series [5], the “1O2 generation of HaloTag-bound ligand compared to nondeuterated ligand” value is “lower”. Moreover, the “fluorescence lifetime (τ) of HaloTag conjugate in cells compared to nondeuterated ligand” value in series [6] is listed as “increased”. Further, the “fluorescence quantum yield of HaloTag conjugate compared to nondeuterated ligand” value in series [7] is recorded as “substantial increase”. For the same compound, in series [3], the “labeling” value was “suitable labels”. Further, in series [4], the “photostability in cells” value is “more photostable” and the “brightness in cells (photons/s)” value was “higher brightness”.

In the case of `[2H]C1([2H])N(c2ccc3c(-c4cc(C(=O)NCCOCCOCCCCCCCl)ccc4C(=O)[O-])c4ccc(=[N+]5C([2H])([2H])C([2H])([2H])C5([2H])[2H])cc-4oc3c2)C([2H])([2H])C1([2H])[2H]` [Compound 24, 2-(3,6-Bis(azetidin-1-yl-d6)xanthylium-9-yl)-4-((2-(2-((6-chlorohexyl)oxy)ethoxy)ethyl)carbamoyl)benzoate], in series [5], the “1O2 generation of HaloTag-bound ligand compared to nondeuterated ligand” value is “significantly suppressed”. For the same compound, the “fluorescence lifetime (τ) of HaloTag conjugate in cells compared to nondeuterated ligand” value in series [6] is on record as “longer”. The “fluorescence quantum yield of HaloTag conjugate compared to nondeuterated ligand” value in series [7] is reported as “higher”. In addition, the “labeling” value in series [3] was “could label”. Moreover, in series [4], the “photostability in cells” value is listed as “no improvement” and the “brightness in cells (photons/s)” value is “higher brightness”.

Consider `[2H]C1([2H])N(c2ccc3c(c2)[Si](C)(C)C2=CC(=[N+]4C([2H])([2H])C([2H])([2H])C([2H])([2H])C4([2H])[2H])C=CC2=C3c2ccccc2C(=O)[O-])C([2H])([2H])C([2H])([2H])C1([2H])[2H]` [Compound 33, 2-(5,5-Dimethyl-3,7-bis(pyrrolidin-1-yl-d8)dibenzo[b,e]silin-10-ylium-10(5H)-yl)benzoate], for which, in series [1], the “extinction coefficient (ε) compared to nondeuterated parent” value is given as “substantial increase” and the “fluorescence quantum yield (Φ) compared to nondeuterated parent” value is “substantial increase”.

For the compound `[2H]C([2H])([2H])N(c1ccc2c(-c3ccccc3C(=O)[O-])c3ccc(=[N+](C([2H])([2H])[2H])C([2H])([2H])[2H])cc-3oc2c1)C([2H])([2H])[2H]` [Compound 14, 2-(3,6-Bis(bis(methyl-d3)amino)xanthylium-9-yl)benzoate], the “photobleaching / in vitro photostability compared to nondeuterated parent” value in series [2] is “slower rate of photobleaching”. For the same compound, the “absorption and emission maxima / spectral shape compared to nondeuterated parent” value in series [1] was “remarkably similar”. In series [1] (setting [8]), the “increase in extinction coefficient at λmax (ε) compared to 1” value is reported as about 20% and the “increase in fluorescence quantum yield (Φ) compared to 1” value is about 20%.

For `[2H]C1([2H])N(c2ccc3c(c2)[Si](C)(C)C2=CC(=[N+]4C([2H])([2H])C([2H])([2H])C4([2H])[2H])C=CC2=C3c2ccccc2C(=O)[O-])C([2H])([2H])C1([2H])[2H]` [Compound 31, 2-(3,7-Bis(azetidin-1-yl-d6)-5,5-dimethyldibenzo[b,e]silin-10-ylium-10(5B)-yl)benzoate], in series [1], the “intrinsic brightness (ε×Φ)” value was “increase”, the “extinction coefficient (ε) compared to nondeuterated parent” value is listed as “modestly increased” and the “fluorescence quantum yield (Φ) compared to nondeuterated parent” value is “did not elicit a large increase”.
